{
  "source": "patent US20230405007A1",
  "about": "“COMPOUND FOR USE IN AND METHODS OF TREATMENT OF FIBROTIC DISEASES” (Galapagos NV, priority 2020, published 2023)",
  "test_system": "subjects with idiopathic pulmonary fibrosis (IPF)",
  "assay": "Phase II randomized, double-blind, placebo-controlled IPF clinical study: monitoring of adverse events (SAEs, TEAEs)",
  "assay_type": "in vivo, human",
  "settings": "for Subjects with Serious TEAE / Subjects with TEAE leading to treatment discontinuation (LD): 100 mg orally once daily, 26 weeks",
  "description": "The study of the current example was a randomized, double-blind, parallel group, placebo-controlled, multicenter, Phase II study to evaluate the efficacy, safety and tolerability of Compound 1 in subjects with idiopathic pulmonary fibrosis (IPF). The primary objective of this study was to evaluate the efficacy of Compound 1 treatment in subjects with IPF on pulmonary function as evaluated by FVC compared to placebo over 26 weeks.\nThe study provided for 2 types of interventions: • Drug: Compound 1—100 mg administered orally once daily as 2 capsules of 50 mg with or without food • Drug: Compound 1 placebo—administered orally once daily as 2 capsules with or without food\nStudy participants were randomized over 2 study arms: • 1. Experimental: Compound 1: Compound 1 100 mg, for 26 weeks • 2. Placebo Comparator: Placebo: Compound 1 placebo for 26 weeks\nTo be eligible, the subjects met the following criteria: • Males or females of non-child-bearing potential, aged ≥40 years. • A diagnosis of IPF within 5 years prior to the screening visit as per American Thoracic Society (ATS)/European Respiratory Society (ERS)/Japanese Respiratory Society (JRS)/Latin American Thoracic Association (ALAT) guidelines. • Meeting all of the following criteria at screening and during the screening period: • FVC≥50% predicted of normal • Disease progression in the last 9 months prior to the screening period and at screening, defined as at least one prescreening FVC value and screening value with a decline of FVC (% predicted or mL), at the investigator's discretion • Diffusing capacity for the lungs for carbon monoxide (DLCO)≥30% predicted of normal (corrected for hemoglobin) • Ratio of forced expiratory volume in one second (FEV1) to FVC≥0.70 • In a stable condition and suitable for study participation based on the results of a medical history, physical examination, vital signs, 12-lead ECG, and laboratory evaluation. Stable condition is based on the clinical judgment of the investigator, co-morbidities should be treated according to the local applicable guidelines. Concomitant medication for comorbidities should be stabilized from 4 weeks before screening and during the screening period (stable defined as no change of dose or regimen). • Estimated minimum life expectancy of 12 months for non-IPF related disease in the opinion of the investigator. • Male subjects with female partners of child bearing potential are willing to comply with the contraceptive methods described in the respective protocol prior to the first dose of the IMP, during the clinical study, and for at least 12 weeks after the last dose of the IMP. • Able to walk at least 150 meters during the 6MWT at screening; without having a contraindication to perform the 6MWT. • Able to understand the importance of adherence, and willing to comply to study treatment, study procedures and requirements as per study protocol, including the concomitant medication restrictions. […]",
  "key": {"[1]": {"settings": "Summary All (N = 68, both arms)"}, "[2]": {"settings": "background therapy Nintedanib (N = 24, both arms)"}, "[3]": {"settings": "background therapy None (N = 25, both arms)"}, "[4]": {"settings": "background therapy Pirfenidone (N = 19, both arms)"}},
  "data": [
    {"smiles": "O=c1nc(OC[C@@H]2COCCO2)cc2n1CCc1cc(C#CC3CC3)ccc1-2", "note": "[GLPG1205, 9-Cyclopropylethynyl-2-((S)-1-[1,4]dioxan-2-ylmethoxy)-6,7-dihydro-pyrimido[6,1-a]iso quinolin-4-one]", "values": [
      {"measurement": "Subjects with Serious TEAE", "setting": "[1]", "value": 9, "unit": "n"},
      {"measurement": "Subjects with TEAE leading to treatment discontinuation (LD)", "setting": "[1]", "value": 10, "unit": "n"},
      {"measurement": "Subjects with Serious TEAE", "setting": "[2]", "value": 7, "unit": "n"},
      {"measurement": "Subjects with TEAE leading to treatment discontinuation (LD)", "setting": "[2]", "value": 6, "unit": "n"},
      {"measurement": "Subjects with Serious TEAE", "setting": "[3]", "value": 2, "unit": "n"},
      {"measurement": "Subjects with TEAE leading to treatment discontinuation (LD)", "setting": "[3]", "value": 2, "unit": "n"},
      {"measurement": "Subjects with Serious TEAE", "setting": "[4]", "value": 0, "unit": "n"},
      {"measurement": "Subjects with TEAE leading to treatment discontinuation (LD)", "setting": "[4]", "value": 2, "unit": "n"},
      {"measurement": "serious adverse events (SAEs) and/or treatment emergent adverse events (TEAEs)", "setting": "administered in combination with or alongside nintedanib", "value": "increased"}
    ]}
  ]
}
